Results from patent publication US20240000741A1, “ALL-TRANS RETINOIC ACID ENHANCES RADIOTHERAPY AND OVERCOMES IMMUNE SUPPRESSION FOR CANCER THERAPY” (The University of Chicago, priority 2022, published 2024).

Assays:
Type in all cases: in vivo, mouse
MC38 cells = assay: Tumor re-challenge of cured mice with MC38 cells; conditions: mice cured by IR+RA, re-challenged with 5×10^6 MC38 cells
Experimental: 1×10^6 MC38, B16/F1, Renca or CT26 cells were subcutaneously implanted into flanks of mice. Tumors were irradiated using a Phillips IR250 orthovoltage X-ray generator (Phillips, Amsterdam, the Netherlands) operating at 250 kV 15 mA. Subcutaneous local tumors were irradiated by shielding bodies with a cylindrical lead cover with only flank tumors exposed for radiation. ATRA (400 μg/mice/day) was administered by oral gavage for 10 days. For the two-tumor model, 1×10^6 and 0.7×10^6 MC38 cells were subcutaneously implanted into the right and left flank of mice respectively. For the tumor re-challenge assay, both the cured mice and the naive mice were re-challenged with 5×10^6 MC38 or 1×10^6 LLC cells respectively. Tumors were measured along two diameters (length and width) and depth twice weekly and volumes were calculated as length×width×depth/2. For CD8 and CD4 T cell depletion experiments, 200 μg antibodies were injected i.p. on day 0, 2, 5 and 8 after radiation. Anti-CD11b antibody was injected i.p. every two days starting 1 day before radiation. Anti-PD-L1 antibody was administered i.p. on day 0, 3, and 7 after radiation at 200 μg/mouse. Anti-IFN-γ was administered i.p. at 500 μg/mouse every 7 days. Anti-NK1.1 antibody was administered via i.p. at 25 μg/mouse every 3 days for 3 doses. Anti-GM-CSF antibody was given by i.p. injection at 250 μg/mouse every 2 days. […]

immune cells in tumors = assay: Flow cytometric analysis of immune cells in treated MC38 tumors and draining lymph nodes
Excerpt: Single cell suspensions were obtained as previously described (40). Cells were blocked with anti-Fc receptor (2.4 G2, BioXCell, Lebanon, New Hampshire, United States of America) and stained for live/dead with Zombie UV, followed staining using antibodies against CD45, CD4, CD8, NK1.1, CD11b, CD11c, Ly6C, Ly6G, F4/80, CD44, CD62L.
The following antibodies were used for high-dimensional flow analysis: BV605-CX3CR, BV650-XCR1, PB-CD11 b, BV510-CD24, BV711-CD64, BV785-F4/80, AF532-CD45, PerCP-Cy5.5-1-A/I-E, PerCP-eFluor710-Flt3, PE-Cy7-CD11c, FITC-Ly6C, PE-iNOS, PE-Dazzle 594-CD103, APC-TNF, Alexa Fluor 700-CD206, and APC-Cy7-SIRPα. For IFN-γ and GrzB (515407) staining, cells were cultured with PMA/ionomycin and brefeldin A (423303, BioLegend, San Diego, California, United States of America) for 6 hours followed by intracellular staining using BD fix/perm intracellular staining kit (554714, BD Biosciences, Franklin Lakes, New Jersey, United States of America). For TNF-α staining, cells were stimulated by PMA/ionomycin and brefeldin A for 4 hours followed by intracellular staining. Foxp3 (17-5773-82, Thermo Fisher Scientific, Waltham, Massachusetts, United States of America) Ki67 (Clone 16-A8, BioLegend, San Diego, California, United States of America) and iNOS staining were performed following Foxp3 staining protocol (00-5523-00, Thermo Fisher Scientific, Waltham, Massachusetts, United States of America). Cells were analyzed on Fortessa flow cytometer (BD Biosciences, Franklin Lakes, New Jersey, United States of America) or on Aurora spectral cytometer (Cytek Biosciences, Fremont, California, United States of America. Data was analyzed with software sold under the tradename FLOWJO software (FlowJo LLC, Ashland, Oregon, United States of America).
Immune cells in tumors 4 days after the start of the treatment were examined. […] In CD11b+ subsets, Ly6C^+ cells, including CD11c^+Ly6C^+ cells, increased by 4-fold in tumors receiving the combination treatment. […] Next, the DC population was examined by analyzing high-dimensional flow cytometry data using traditional dendritic cell (DC) markers. Monocyte-derived dendritic cells (MoDCs) (Ly6C^+CD11 b^+CD11c^+ MHC-II^+CXCR3^+CD64^+SIRPα^+CD206^− cells), a low level of type two dendritic cells (DC2s) (Ly6C^−CD11b^+CD11c^+MHC-11^+CXCR3^+CD64^−SIRPα+CD206^−) and a very low level of type one dendritic cells (DC1s) (Ly6C^−CD11b^−CD11c^+MHC-11^+ CXCR1^+CD103^+CD64^−) were detected in IR and RA treated tumors.

CT26 tumor = assay: ATRA-sensitized fractionated radiotherapy in CT26 tumor bearing BALB/c mice; conditions: 6 fractions
Experimental: 2×10^6 CT26 cells were subcutaneously injected into the right flanks of BALB/c mice. When the tumors reached 100-120 mm^3 in volume, ATRA in corn oil (400 μg/each) was daily administrated via oral gavage. After administration, mice were anaesthetized with 2% (v/v) isoflurane and the tumors were irradiated daily with X-ray at a dose of 1 Gy/fraction (225 kVp, 13 mA, 0.3 mm-Cu filter) for a total of 6 fractions on six consecutive days. Oil (equal volume/each) was daily administrated with or without irradiation as a control. The tumor size was measured with a caliper every day and the tumor volume calculated as 0.5×length×width 2. All the mice were sacrificed when the tumors reached about 2000 mm^3.

[1] = IR and RA treatment, high-dimensional flow cytometry
[2] = IR+RA vs single treatment, day 8
[3] = IR+RA, 4 days after start of treatment
[4] = after IR+RA combination treatment
[5] = ATRA 400 μg/each oral gavage daily plus X-ray 1 Gy/fraction

## CC1=C(/C=C/C(C)=C/C=C/C(C)=C/C(=O)O)C(C)(C)CCC1 [RA, all-trans retinoic acid]
MC38 cells
  tumor formation after re-challenge with MC38 cells: did not form tumors
Immune cells in tumors; IR and RA combination treatment
  expression of TNF-α in CD11b+ cells: Elevated expression
Immune cells in tumors; [1]
  DC1 population: not changed
  DC2 population: not changed
  level of monocyte-derived dendritic cells (MoDCs): significantly induced
Immune cells in tumors; IR+RA compared to IR treated tumors, eight days after treatment commencement, p<0.05
  increase of CD8+ T cells infiltration in tumors: about 3 fold
Immune cells in tumors; IR+RA compared to any single treatment, day 8
  ratio of CD8+ IFN-γ+ cells to Treg: increased significantly
Immune cells in tumors; [2]
  percentage of CD8+ IFN-γ+ cells in tumors and draining lymph nodes: increased
  percentage of CD8+GzmB+ cells in tumors and draining lymph nodes: increased
Immune cells in tumors; [3]
  CD11b+iNOS+ cells in tumors: 11.1%
  increase of Ly6C+ cells, including CD11c+Ly6C+ cells, in CD11b+ subsets: 4 fold
Immune cells in tumors; IR+RA, day 4 post treatment
  percentage of CD4+ T cells in tumors: no significant change
  percentage of CD8+ T cells in tumors: only a marginal change
Immune cells in tumors; IR+RA, day 8
  percentage of Foxp3+ (Treg) cells in CD4+ T cells: decreased
Immune cells in tumors; IR+RA, day 8, compared to any other treatment group
  CD11b+CD11c+iNOS+TNF-α+ cells in tumors: more
Immune cells in tumors; IR+RA, tumors in CCR2 KO hosts vs WT mice
  number of iNOS-producing Inf-MACs in tumors: significantly lower
Immune cells in tumors; RA alone, 4 days after start of treatment
  CD11b+iNOS+ cells in tumors: 1.8%
Immune cells in tumors; Rag1−/− hosts given IFN-γ−/− T cells compared to WT T cells
  Inf-MAC induction by IR plus RA: significantly abrogated
Immune cells in tumors; [4]
  Ki67+ proliferation in DLN, CD8+ and CD4+: increased
  percentage of naïve T cells (CD62L+CD44−) in DLN, CD8+ and CD4+: decreased
CT26 tumor; [5]
  CT26 tumor growth: regressed tumor growth
  mice totally free of tumors: 2 out of 5
CT26 tumor; ATRA plus X-ray 1 Gy/fraction
  body weight: No weight loss
